# According to article PMC11956017, “Design of Benzyl-triazolopyrimidine-Based NADPH Oxidase Inhibitors Leads to the Discovery of a Potent Dual Covalent NOX2/MAOB Inhibitor” (Journal of Medicinal Chemistry, 2025):
# “Also recorded” adds a separate entry of the source. Marks after values point to notes of the source that are not given here.
# How the values were obtained:
# human MAOB = target: T1, human MAOB (Homo sapiens, UniProt P27338); assay: Purified MAOB, Amplex Red/horseradish peroxidase coupled assay; assay type: biochemical; conditions: 10 nM MAOB, 1 mM benzylamine
# T1 construct: made in house; host or cells: Pichia pastoris
# T1 sequence (P27338 1-520): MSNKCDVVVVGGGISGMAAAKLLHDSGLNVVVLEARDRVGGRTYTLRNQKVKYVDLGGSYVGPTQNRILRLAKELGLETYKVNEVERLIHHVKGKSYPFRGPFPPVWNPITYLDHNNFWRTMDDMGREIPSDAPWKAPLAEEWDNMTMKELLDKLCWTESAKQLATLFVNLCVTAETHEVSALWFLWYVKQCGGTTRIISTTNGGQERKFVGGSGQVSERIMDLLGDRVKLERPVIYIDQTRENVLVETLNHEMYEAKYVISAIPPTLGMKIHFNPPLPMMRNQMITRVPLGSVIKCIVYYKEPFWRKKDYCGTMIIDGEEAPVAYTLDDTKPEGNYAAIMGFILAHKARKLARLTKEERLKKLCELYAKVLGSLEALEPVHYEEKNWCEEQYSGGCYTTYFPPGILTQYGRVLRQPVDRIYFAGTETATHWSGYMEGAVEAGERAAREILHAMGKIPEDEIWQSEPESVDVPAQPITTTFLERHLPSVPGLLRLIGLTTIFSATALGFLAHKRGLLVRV
# Description: (§1) IC50 values on human MAOA and human MAOB were determined using the Amplex Red/horseradish peroxidase coupled assay. […] Measurements were performed using a ClarioStar plate reader (excitation 572 nm and emission 583 nm) (BMG Labtech). IC50 values were obtained by fitting the percentage of inhibition versus log(inhibitor concentration) using GraphPad software 7.0. The covalent modification of the flavin upon the reaction with the propargylamine-containing inhibitors was monitored spectrophotometrically using a diode array UV/visible spectrophotometer (Agilent Technologies). […] The cofactor covalent modification was monitored over time following the shift of the enzyme-bound flavin (peaks at 370 and 456 nm) to 410 nm (ε410 = 23,500 M^–1 cm^–1) (Figure S10).
# BV2 cells [1] = assay: ROS detection with CellROX Deep Red in BV2 cells; assay type: cell-based, murine; conditions: 10 μM, LPS/IFN-γ stimulation, 48 h
# Description: BV2 murine microglial cells were cultured in DMEM supplemented with 10% heat-inactivated FBS, 100 IU/mL penicillin G, […] streptomycin, and […] amphotericin B and grown at 37 °C in 5% CO2 and a humidified atmosphere. […] After 30 min, LPS 100 ng/mL and IFN-γ 20 ng/mL were added to the medium for an additional 48 h. After treatment, BV2 cells were incubated with a CellROX Deep Red reagent (cat. no. C10422) at 5 μM and incubated for 30 min at 37 °C as indicated by the manufacturer protocol. ROS levels were measured by a spectrofluorometer, taking as 100% the median fluorescence intensity of cells treated with the vehicle.
# human MAOA = target: T2, human MAOA (Homo sapiens, UniProt P21397); assay: Purified MAOA, Amplex Red/horseradish peroxidase coupled assay; assay type: biochemical; conditions: 70 nM MAOA, 1 mM kynuramine
# T2 construct: made in house; host or cells: Pichia pastoris
# T2 sequence (P21397 1-527): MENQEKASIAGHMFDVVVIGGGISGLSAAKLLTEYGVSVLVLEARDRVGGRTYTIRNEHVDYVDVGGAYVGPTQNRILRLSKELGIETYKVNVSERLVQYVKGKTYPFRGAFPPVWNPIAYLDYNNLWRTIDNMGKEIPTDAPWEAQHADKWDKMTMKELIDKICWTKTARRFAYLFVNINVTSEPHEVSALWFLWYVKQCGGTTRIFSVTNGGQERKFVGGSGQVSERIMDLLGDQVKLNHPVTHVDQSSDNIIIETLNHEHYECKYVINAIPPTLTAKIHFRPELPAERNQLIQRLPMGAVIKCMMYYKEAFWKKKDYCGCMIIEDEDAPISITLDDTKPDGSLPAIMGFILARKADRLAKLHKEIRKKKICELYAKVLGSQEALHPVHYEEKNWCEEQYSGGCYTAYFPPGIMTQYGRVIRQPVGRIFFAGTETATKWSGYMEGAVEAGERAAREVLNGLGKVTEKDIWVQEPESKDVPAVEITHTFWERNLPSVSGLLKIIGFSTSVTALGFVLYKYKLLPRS
# Description: as §1
# BV2 cells [2] = assay: qRT-PCR of iNOS, IL-1β and IL-6 transcripts in BV2 cells; assay type: cell-based, murine; conditions: cells pre-stimulated with LPS/IFN-γ for 24h, then 10 µM compound for 24 h
# Description: BV2 murine microglial cells were cultured in DMEM supplemented with 10% heat-inactivated FBS, 100 IU/mL penicillin G, […] streptomycin, and […] amphotericin B and grown at 37 °C in 5% CO2 and a humidified atmosphere. […]
# BV2 cells were lysed in a Trizol reagent for isolation of RNA. A reverse transcription reaction was performed in a thermocycler (MJMini personal thermal cycler; Biorad) using an IScript Reverse Transcription Supermix (Biorad) according to the manufacturer’s protocol, under the following conditions: incubation at 25 ° C for 5 min, reverse transcription at 42 ° C for 30 min, and inactivation at 85 ° C for 5 min. Real-time PCR (rtPCR) was carried out in an I-Cycler IQ Multicolor rtPCR detection system (Biorad) using a SsoFast EvaGreen Supermix (Biorad) according to the manufacturer’s instructions. The PCR protocol consisted of 40 cycles of denaturation at 95 ° C for 30 s and annealing/extension at 60 ° C for 30 s. For quantification analysis, the comparative threshold cycle (Ct) method was used. The Ct values from each gene were normalized to the Ct value of GAPDH in the same RNA samples. Relative quantification was performed using the 2^–ΔΔCt method (Schmittgen and Livak, 2008) and expressed as a fold change in arbitrary values. Primers used are as follows: • iNOS fw: […]; rev: […]. • IL-1β fw: […]; rev: […]. • IL-6 fw: […]; rev: […].
# NOX2 = NOX2 (Homo sapiens, UniProt P04839); parameters: NOX2 was expressed as native protein in X-CGD PLB-985 cells transduced with the RD114 pseudotyped MFGS-NOX2 vector; expressed in transfected cells; host or cells: X-CGD PLB-985 cells transduced with MFGS-NOX2; isolated membranes; Cytosolic proteins made in E. coli; conditions: cited from earlier work
# NOX4 = conditions: cited from earlier work
# NOX5 = conditions: cited from earlier work
# NOX1 = conditions: cited from earlier work
# monocytic U937 = system: monocytic U937; parameters: method as in PMID 37884805; conditions: cited from earlier work
# [3] = system: dehydrogenase domain of csNOX5; assay: NADPH depletion assay on csNOX5 dehydrogenase domain; assay type: biochemical, Cylindrospermum stagnale; conditions: 100 μM inhibitor; 1 μM purified protein, 250 μM NADPH
# Purified MAOB = conditions: read-out: IC50 Purified MAOB; cited from earlier work
# BV2 cells [4] = assay: MTT viability assay in BV2 cells; assay type: cell-based, murine; conditions: 10 μM, LPS/IFN-γ stimulation, 48 h
# Description: BV2 murine microglial cells were cultured in DMEM supplemented with 10% heat-inactivated FBS, 100 IU/mL penicillin G, 100 mg/mL streptomycin, and 2.5 mg/mL amphotericin B and grown at 37 °C in 5% CO2 and a humidified atmosphere. […] After 30 min, LPS 100 ng/mL and IFN-γ 20 ng/mL were added to the medium for an additional 48 h.
# Cell viability was determined by the MTT assay. Briefly, MTT (dissolved in PBS with a final concentration of 0.5 mg/mL) was added to the medium culture. After 2 h of incubation, the cells were mixed with DMSO and shaken for 10 min. Finally, the absorption of the samples was read by regulating the 570 nm filter as the main wavelength and the 630 nm filter as the referenced wavelength. The blank was subtracted from all samples to obtain pure cellular absorption. Results are expressed as the percentage of cell survival, taking 100% of the cells treated with the vehicle.
# Purified MAOA = conditions: read-out: IC50 Purified MAOA; cited from earlier work
# csNOX5 dehydrogenase = assay: Intact protein mass spectrometry of csNOX5 dehydrogenase; assay type: binding, Cylindrospermum stagnale; conditions: intact protein ESI-qTOF-HRMS
# Description: Approximately 1 mg mL^-1 protein was incubated with 300 μM FAD and 1 mM 9a at 4 °C for 1 h. A negative control reaction was performed by adding an equal volume of DMSO. Protein was denatured by adding 1% (v/v) formic acid. Chromatographic separation and mass spectrometry analysis were carried out as previously reported.[10] Analyses were carried out by ESI-qTOF-HRMS on an […] qTOF system (Sciex) embedding a Twin Sprayer ESI probe and coupled with an ExcionLC system (Sciex) controlled by SciexOS software v. 3.0.0. The injection volume was 10 μL (10 μg), and chromatographic separation was carried out with a bioZen WidePore C4 column (a 100 mm length, a 2.1 mm diameter, and a 2.6 μm particle size; Phenomenex).
# [5] = system: dehydrogenase domain of csNOX5; assay: NADPH depletion assay on csNOX5 dehydrogenase domain; assay type: biochemical, Cylindrospermum stagnale; conditions: 10 μM inhibitor; 1 μM purified protein, 250 μM NADPH
# Description: A series of derivatives were synthesized and tested at 10 μM against the dehydrogenase domain of NOX5 from Cylindrospermum stagnale (C. stagnale, CsNOX5; Figure 2B).
# The NADPH depletion assay for IC50 determinations was performed as described[10] with modifications for covalent inhibitors, which require longer incubation times. Briefly, the catalytic activity was measured by monitoring the absorbance at 340 nm with a Cary 100 UV–vis spectrophotometer (Varian). A 1 μM portion of purified protein was added in a final volume of 130 μL of 50 mM HEPES pH 7.5 and supplemented with 300 μM FAD. Inhibitors were added at varying concentrations and incubated for 1 h at 25 °C.
compound,measurement,setting,value
"c1ccc(Cn2nnc3c(Sc4nc5ccccc5o4)ncnc32)cc1 [VAS2870, 3-benzyl-7-(2-benzoxazolyl)thio-1,2,3-triazolo[4,5-d]pyrimidine, reference compound]",IC50,human MAOB,> 100 µM
same,IC50 Purified MAOB,human MAOB,ineffective; also recorded: Not detected
same,ROS levels in BV2 cells,BV2 cells [1],decrease the ROS levels
same,IC50,human MAOA,> 100 µM
same,IC50 Purified MAOA,human MAOA,ineffective; also recorded: Not detected
same,"effects on iNOS, IL-1β and IL-6 mRNA without inhibitor pretreatment",BV2 cells [2],negligible
c1ccc(Cn2nnc3c(Sc4ncco4)ncnc32)cc1 [VAS3947],IC50,NOX2,5.6 µM
same,IC50,NOX4,30.5 µM
same,IC50,NOX5,39.2 µM
same,IC50,NOX1,86.8 µM
c1ccc(-c2cc(NC3CCNCC3)nc3ccccc23)cc1 [MC4876],viability of monocytic U937 and other myeloid cancer lines,monocytic U937,reduced the viability
"Clc1ncnc2c1nnn2Cc1ccccc1 [Compound 3, 3-Benzyl-7-chloro-3H-[1,2,3]triazolo[4,5-d]pyrimidine]",% INHIBITION csNOX5 DEHYDROGENASE DOMAIN,[3],23.4 ± 4.8^b %
O=C1c2ccccc2-c2cc(N3CCC4(CC3)OCCO4)nc3cccc1c23 [Compound M41],viability of monocytic U937 and other myeloid cancer lines,monocytic U937,reduced the viability
"C#CCN[C@@H]1CCc2ccccc21 [Rasagiline, reference compound]",ROS levels in BV2 cells,BV2 cells [1],decrease the ROS levels
same,IC50,Purified MAOB,0.014 µM
same,BV2 cell viability,BV2 cells [4],negligible effects on cells viability
same,IC50,Purified MAOA,0.7 µM
"C=CC(=O)N1CCC(Nc2ncnc3c2nnn3Cc2ccccc2)CC1 [Compound 7c, 1-(4-((3-Benzyl-3H-[1,2,3]triazolo[4,5-d]pyrimidin-7-yl)amino)piperidin-1-yl)prop-2-en-1-one]",covalent binding to csNOX5 dehydrogenase active-site cysteine,csNOX5 dehydrogenase,no covalent binding
same,% INHIBITION csNOX5 DEHYDROGENASE DOMAIN,[5],41.2 ± 9.7%
